According to ChEMBL document CHEMBL3400067, “Synthesis, antinociceptive and anti-inflammatory effects of porphyrins” (Bioorg Med Chem, 2015):
Activity calls are given as the source filed them. The rule behind the calls is not given here.

Key:
Mus musculus [1] = assay: Anti-arthritic activity in po dosed CD-1 mouse assessed as inhibition of carrageenan-kaolin-induced arthritis at treated for 8 days relative to vehicle treated control; type: functional, organism-based; details: TDE = time-dependent effect
Mus musculus [2] = assay: Antiinflammatory activity against carrageenan-kaolin-induced arthritis CD-1 mouse model assessed as decrease in PGE2 level in serum at 1 mg/kg, po for 8 days relative to vehicle treated control; type: functional; details: CD-1, Serum, 192 h
Mus musculus [3] = assay: Anti-arthritic activity against carrageenan-kaolin-induced arthritis CD-1 mouse model assessed as decrease in IL-1beta level in serum at 1 mg/kg, po for 8 days relative to vehicle treated control; type: functional
Mus musculus [4] = assay: Anti-arthritic activity in CD-1 mouse assessed as inhibition of carrageenan-kaolin-induced arthritis at 1 mg/kg, po for 8 days relative to vehicle treated control; type: functional; details: CD-1, 192 h
Mus musculus [5] = assay: Anti-arthritic activity against carrageenan-kaolin-induced arthritis CD-1 mouse model assessed as decrease in TNF-alpha level in serum at 1 mg/kg, po for 8 days relative to vehicle treated control; type: functional
Mus musculus [6] = assay: Anti-arthritic activity against carrageenan-kaolin-induced arthritis CD-1 mouse model assessed as decrease in IL-6 level in serum at 1 mg/kg, po for 8 days relative to vehicle treated control; type: functional
Mus musculus [7] = assay: Antiinflammatory activity against carrageenan-kaolin-induced arthritis CD-1 mouse model assessed as decrease in NO level in serum at 1 mg/kg, po for 8 days relative to vehicle treated control; type: functional; details: CD-1, Serum, 192 h
Mus musculus [8] = assay: Anti-arthritic activity against carrageenan-kaolin-induced arthritis CD-1 mouse model assessed as decrease in spleen index at 1 mg/kg, po for 8 days relative to vehicle treated control; type: functional; details: CD-1, Spleen, 192 h
Mus musculus [9] = assay: Antinociceptive activity against CD-1 mouse assessed as licking of hind paw or jumping at 100 mg/kg, po after 90 mins; type: functional; details: CD-1, 1.5 h
[10] = Antiinflammatory activity against Wistar rat erythrocytes assessed as inhibition of heat-induced hemolysis after 15 mins by membrane stabilizing activity assay; type: functional, cell-based; details: erythrocyte
Mus musculus [11] = assay: Antiinflammatory activity in po dosed CD-1 mouse ear edema model assessed as reduction in TPA-induced edema size administered 30 mins prior to TPA-challenge for every 48 hrs for 10 days relative to vehicle treated control; type: functional, organism-based
Mus musculus [12] = assay: Antiinflammatory activity in CD-1 mouse ear edema model assessed as reduction in TPA-induced edema size at 2 mg/ear, topically administered 30 mins prior to TPA-challenge measured after 6 hrs relative to control; type: functional
Mus musculus [13] = assay: Antiinflammatory activity in CD-1 mouse ear edema model assessed as reduction in TPA-induced edema size at 8 mg/kg, po administered 30 mins prior to TPA-challenge for every 48 hrs for 10 days relative to vehicle treated control; type: functional; details: CD-1, Ear
Mus musculus [14] = assay: Anti-arthritic activity against carrageenan-kaolin-induced arthritis CD-1 mouse model assessed as decrease in spleen index at 200 mg/kg, po for 8 days relative to vehicle treated control; type: functional; details: CD-1, Spleen, 192 h
Mus musculus [15] = assay: Antinociceptive activity in CD-1 mouse assessed as licking time during phase 1 at 50 to 200 mg/kg, po administered 1 hr prior to formalin-challenge; type: functional, organism-based
Mus musculus [16] = assay: Antiinflammatory activity in CD-1 mouse ear edema model assessed as reduction in TPA-induced edema size at 200 mg/kg, po administered 30 mins prior to TPA-challenge for every 48 hrs for 10 days relative to vehicle treated control; type: functional; details: CD-1, Ear
Mus musculus [17] = assay: Antiinflammatory activity against carrageenan-kaolin-induced arthritis CD-1 mouse model assessed as decrease in NO level in serum at 200 mg/kg, po for 8 days relative to vehicle treated control; type: functional; details: CD-1, Serum, 192 h
Mus musculus [18] = assay: Antiinflammatory activity against carrageenan-kaolin-induced arthritis CD-1 mouse model assessed as decrease in PGE2 level in serum at 200 mg/kg, po for 8 days relative to vehicle treated control; type: functional; details: CD-1, Serum, 192 h
Mus musculus [19] = assay: Anti-arthritic activity in CD-1 mouse assessed as inhibition of carrageenan-kaolin-induced arthritis at 200 mg/kg, po for 8 days relative to vehicle treated control; type: functional; details: CD-1, 192 h
Mus musculus [20] = assay: Anti-arthritic activity against carrageenan-kaolin-induced arthritis CD-1 mouse model assessed as decrease in TNF-alpha level in serum at 200 mg/kg, po for 8 days relative to vehicle treated control; type: functional
Mus musculus [21] = assay: Anti-arthritic activity against carrageenan-kaolin-induced arthritis CD-1 mouse model assessed as decrease in IL-1beta level in serum at 200 mg/kg, po for 8 days relative to vehicle treated control; type: functional
Mus musculus [22] = assay: Anti-arthritic activity against carrageenan-kaolin-induced arthritis CD-1 mouse model assessed as decrease in IL-6 level in serum at 200 mg/kg, po for 8 days relative to vehicle treated control; type: functional

Row | Compound | Activity (Mus musculus [1]) | inhibition in vivo at 100 mg/kg (Mus musculus [9]) [%] | EC50 [10] [µM] | inhibition (INH) (Mus musculus [12]) [%] | inhibition in vivo at 200 mg/kg (Mus musculus [14]) [%] | Activity (Mus musculus [15]) | inhibition in vivo at 200 mg/kg (Mus musculus [16]) [%] | inhibition in vivo at 200 mg/kg (Mus musculus [17]) [%] | inhibition in vivo at 200 mg/kg (Mus musculus [18]) [%] | inhibition in vivo at 200 mg/kg (Mus musculus [19]) [%] | further results
1 | CN(Cc1cnc2nc(N)nc(N)c2n1)c1ccc(C(=O)N[C@@H](CCC(=O)O)C(=O)O)cc1 [METHOTREXATE] | tde |  |  |  |  |  |  |  |  |  | inhibition in vivo at 1 mg/kg (Mus musculus [2]): 66%; fold change (FC) (Mus musculus [3]): 2; inhibition in vivo at 1 mg/kg (Mus musculus [4]): 49%; fold change (FC) (Mus musculus [5]): 2.1; fold change (FC) (Mus musculus [6]): 2.8; inhibition in vivo at 1 mg/kg (Mus musculus [7]): 76%; inhibition in vivo at 1 mg/kg (Mus musculus [8]): 38%
2 | COc1ccc2cc([C@H](C)C(=O)O)ccc2c1 [NAPROXEN] |  | 36 | 756 |  |  |  |  |  |  |  | 
3 | COc1ccc2c(c1)c(CC(=O)O)c(C)n2C(=O)c1ccc(Cl)cc1 [INDOMETHACIN] |  |  |  | 76 |  |  |  |  |  |  | inhibition (Mus musculus [11]): Dose-dependent effect; inhibition in vivo at 8 mg/kg (Mus musculus [13]): 55%
4 | Fc1ccc(-c2c3nc(c(-c4ccc(F)cc4)c4ccc([nH]4)c(-c4ccc(F)cc4)c4nc(c(-c5ccc(F)cc5)c5ccc2[nH]5)C=C4)C=C3)cc1 | tde | 20 | 395 | 38 | 20 | Active | 36 | 44 | 41 | 30 | 
5 | Brc1ccc(-c2c3nc(c(-c4ccc(Br)cc4)c4ccc([nH]4)c(-c4ccc(Br)cc4)c4nc(c(-c5ccc(Br)cc5)c5ccc2[nH]5)C=C4)C=C3)cc1 | tde | 32 | 342 | 67 | 17 | Active | 23 | 36 | 32 | 27 | fold change (FC) (Mus musculus [20]): 1.1; fold change (FC) (Mus musculus [21]): 1.6; fold change (FC) (Mus musculus [22]): 1.3
